The source of these data is patent EP0549352B1, “Tricyclic compounds as angiotensin II antagonists” (KYOWA HAKKO KOGYO CO., LTD., priority 1991, dated 1993).

The inhibition is the relative decrease from the control value, in per cent.

Assay [1] deals with hypertensive response to AII. As to the kind of experiment: Inhibition test against hypertensive response to AII. The class given is in vivo, Male Wistar rats. To be noted: test compound 1 mg/kg orally; 0.3 µg/kg AII intravenously one hour after dosing; average artery blood pressure. The method, then:
Inhibition test against hypertensive response to AII
Male Wistar rats were anesthetized with pentobarbital. A cannula for blood pressure measurement was inserted from the right femoral artery into the abdominal aorta and another cannula for AII injection was inserted into the right femoral vein. The cannulae were passed under skin and fixed after coming out of the back, and the blood pressure was recorded on a polygraph from the artery cannula using a voltage transformer.
On the day after operation, 0.3 µg/kg AII was intravenously injected into each animal and the change in the average artery blood pressure was examined as the control pressor response. Then, a test compound (1 mg/kg) was orally administered and after one hour, 0.3 µg/kg AII was injected again, followed by examination of the pressor response. The inhibitory effect of the test compound against the control pressor response was determined as the inhibition rate.

For the next assay, the target named is T1, AII receptor (Bos taurus, UniProt P25104).
T1 construct: Tissue of bovine adrenal cortex was finely cut and suspended; from tissue; host or cells: bovine adrenal cortex membrane fraction
T1 sequence (P25104 1-359): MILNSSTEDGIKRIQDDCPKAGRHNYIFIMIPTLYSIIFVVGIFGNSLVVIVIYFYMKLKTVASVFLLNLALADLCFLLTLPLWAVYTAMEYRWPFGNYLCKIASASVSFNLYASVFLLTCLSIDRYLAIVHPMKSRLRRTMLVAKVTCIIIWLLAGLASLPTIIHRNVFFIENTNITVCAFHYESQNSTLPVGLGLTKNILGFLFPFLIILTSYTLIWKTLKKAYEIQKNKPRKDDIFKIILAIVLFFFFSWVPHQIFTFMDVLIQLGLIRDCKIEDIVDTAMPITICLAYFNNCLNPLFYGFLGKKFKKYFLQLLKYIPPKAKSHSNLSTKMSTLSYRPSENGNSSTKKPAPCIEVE
As to the kind of experiment: Receptor binding test using bovine adrenal cortex ([125I]AII binding). To be noted: test compound 0.1 µM; receptor binding of [125I]AII (2.5 × 10^-10M); bovine adrenal cortex membranes; room temperature, 2 hours; read-out: Inhibition Rate (%). The method, then: Receptor binding test using bovine adrenal cortex
Tissue of bovine adrenal cortex was finely cut and suspended in a 0.25M sucrose solution containing NaHCO3, ethylenediaminetetraacetic acid (EDTA), leupepsin, pepstatin A and phenylmethanesulfonyl fluoride, followed by homogenization. The homogenate was centrifuged at 3,000 rpm for 10 minutes and the supernatant was centrifuged at 9,000 rpm. Then, the supernatant was further centrifuged at 30,000 rpm for 60 minutes and the precipitate was suspended in NaHCO3-EDTA solution, followed by centrifugation at 30,000 rpm for 60 minutes. The resulting precipitate was suspended in a phosphate buffer and the suspension was used for the binding test as an AII receptor source.
To a test compound or a solvent were added 250 µl of the AII receptor solution prepared above, 250 µl of Tris 50 mM buffer containing 0.2% bovine serum albumin (BSA), and 20 µl of [^125I]AII (2.5 × 10^-10M). The mixture was allowed to stand at room temperature for 2 hours and then filtered through a glass fiber filter (GF/B Wattman). The filter was placed in a test tube and the radioactivity was measured using a gamma-counter.
The inhibitory activity (inhibition rate) of the test compound (0.1 µM) against the receptor binding of [^125I]AII was calculated by the following equation. Inhibition Rate (%) =(1-((Binding Amount in the Presence of a Test Compound)-(Nonspecific Binding Amount))/((Total Binding Amount)-(Nonspecific Binding Amount)))× 100 [formula]
The binding amount in the presence of a test compound is the amount of radioactivity of [^125I]AII bound in the presence of a test compound (0.1 µM).
The total binding amount is the amount of radioactivity of [^125I]AII bound in the absence of a test compound.
The nonspecific binding amount is the amount of radioactivity of [^125I]AII bound in the presence of 1 µM AII.

On to `CCc1nc2c(C)cc(C)nc2n1Cc1ccc2c(c1)CCc1ccccc1N2Cc1nnn[nH]1` [Compound 32, 2-(5,7-Dimethyl-2-ethyl-3H-imidazo[4,5-b]pyridin-3-yl)methyl-5-(1H-tetrazol-5-yl)methyl-5H-10,11-dihydrodibenz[b,f]azepine], for which the “inhibition rate against the control pressor response” value in assay [1] turned out to be 45%. The inhibition at 0.1 µM on AII receptor turned out to be 86%.
